# In patent US10736927B2, “Pharmaceutical compositions for preventing or treating inflammatory bowel diseases” (INSERM (INSTITUT NATIONAL DE LA SANTE ET DE LA RECHERCHE …, priority 2015, dated 2020):
# Legend:
# [1] = tested on: DSS-exposed MCard9−/− mice; assay: DSS-induced colitis with Ficz injection in microbiota-colonized germ-free mice; assay type: in vivo; conditions: Ficz 1 μg/mouse i.p. 1 day after DSS; Ficz-treated MCard9−/− mice vs non-treated counterparts during recovery
# Procedure: Fresh stool samples from WT or Card9^−/− mice were immediately transferred to an anaerobic chamber, in which the stool samples were suspended and diluted 1:100 in LYHBHI medium (BD Difco, Le Pont De Claix, France) supplemented with cellobiose (1 mg/ml; Sigma-Aldrich, St. Louis, Mo., USA), maltose (1 mg/ml; Sigma-Aldrich), and cysteine (0.5 mg/ml; Sigma-Aldrich). Four- to five-week-old WT germ-free mice were randomly assigned to two groups and inoculated via oral gavage with 400 μl of fecal suspension from the conventional wild-type (MWT) or Card9^−/− (MCard9^−/−) mice and maintained in separated isolators. One aliquot of each fecal suspension was stored at −80° C. […]
# To induce colitis, the mice were administered drinking water supplemented with 2% (w/v) dextran sulfate sodium (DSS; MP Biomedicals, LLC, Aurora, Ohio, USA) for 7 days, and then allowed to recover by drinking unsupplemented water for the next 5 days (FIG. 7 a). […] Body weight, gross blood, and stool consistency were analyzed daily. The severity of colitis was assessed using the disease activity index (DAI) as previously described (6).
# Colon samples for histological studies were maintained at 4° C. in 4% paraformaldehyde and then embedded in paraffin. […] The number of cleaved caspase-3-positive cells in 100 μm of analyzed colon was counted. Ki67 was quantified as a percentage of the total height of each crypt. […]
# [2] = tested on: Il22, RegIIIγ, RegIIIβ, Il17A transcript expression in colon; assay: Colon transcript expression by qRT-PCR in DSS-exposed mice treated with Ficz; assay type: in vivo, mouse
# Procedure: (§1) To induce colitis, the mice were administered drinking water supplemented with 2% (w/v) dextran sulfate sodium (DSS; MP Biomedicals, LLC, Aurora, Ohio, USA) for 7 days, and then allowed to recover by drinking unsupplemented water for the next 5 days (FIG. 7 a). 6-formylindolo[3,2-b]carbazole (Ficz) was obtained from Enzo Life Sciences (Lausen, Switzerland) resuspended in dimethyl sulfoxide (DMSO; Sigma-Aldrich) and was administered intraperitoneally 1 day after DSS administration (1 μg/mouse). Controls consisted of mice injected with DMSO vehicle alone. For the antifungal treatment, mice were fed 0.5 mg/ml fluconazole in the drinking water (Sigma-Aldrich) 1 week before DSS administration and every day thereafter, as previously described^18. Body weight, gross blood, and stool consistency were analyzed daily. The severity of colitis was assessed using the disease activity index (DAI) as previously described (6).
# Total RNA was isolated from colon samples using an RNeasy Mini Kit (Qiagen, Hilden, Germany), according to the manufacturer's instructions. Quantitative RT-PCR was performed using SuperScript II Reverse Transcriptase (Life Technologies, Saint Aubin, France) and then a Takyon SYBR Green PCR kit (Eurogentec, Liege, Belgium) in a StepOnePlus apparatus (Applied Biosystems, Foster City, Calif., USA) with specific mouse oligonucleotides. We used the 2^−ΔΔCt quantification method with mouse Gapdh as an endogenous control and the WT or MWT group as a calibrator.
# [3] = tested on: cytokines secreted by colon explants; assay: Cytokines secreted by colon explants (ELISA) of DSS-exposed mice treated with Ficz; assay type: in vivo, mouse
# Procedure: as §1
# MLNs and spleens were sieved through a 70-μm cell strainer (BD, Le Pont De Claix, France) in complete RPMI 1640 medium (10% heat-inactivated fetal calf serum, 2 mM L-glutamine, 50 IU/ml penicillin, and 50 μg/ml streptomycin; Sigma-Aldrich), and 1×10^6 cells per well were cultured (37° C., 10% CO2) for 48 h with stimulation by phorbol 12-myristate 13-acetate (PMA, 50 ng/ml; Sigma-Aldrich) and ionomycin (1 μM; Sigma-Aldrich). The culture supernatant was frozen at −80° C. until processing. To measure the cytokine levels in the colonic explants, tissues from the medium colon were isolated and rinsed in phosphate buffered saline (PBS; Gibco, Paisley, United Kingdom). The colonic explants were cultured (37° C., 10% CO2) overnight in 24-well tissue culture plates (Costar, Corning, Amsterdam, The Netherlands) in 1 ml of complete RPMI 1640 medium. The culture supernatants were collected and stored at −80° C. until processing. ELISAs were performed on the supernatants to quantify mouse cytokines according to the manufacturer's instructions: IL10, IL17A, and IFNγ (Mabtech, Nacka Strand, Sweden); IL22 (eBioscience, San Diego, Calif., USA); and IL6 (R&D Systems, Minneapolis, Minn., USA). For the colonic explants, cytokine concentrations were normalized according to the dry weight of each colonic explant.
# [4] = tested on: DSS-exposed MWT and MCard9−/− mice; assay: DSS-induced colitis with antifungal treatment in MWT and MCard9−/− mice; assay type: in vivo, mouse; conditions: fluconazole 0.5 mg/ml in drinking water from 1 week before DSS
# Procedure: as §1
# [5] = tested on: Card9−/−→GF mice; assay: DSS-induced colitis in Card9−/−→GF mice supplemented with three Lactobacillus strains; assay type: in vivo; conditions: antagonist 100 μg/mouse i.p. three times per week, data not shown
# Procedure: To induce colitis, mice were administered drinking water supplemented with 2% (wt./vol.) dextran sulfate sodium (DSS; MP Biomedicals, LLC, Aurora, Ohio, USA) for 7 days and were then allowed to recover by drinking unsupplemented water for the next 5 days. The 6-formylindolo(3,2-b)carbazole (Ficz; Enzo Life Sciences, Lausen, Switzerland) and the AHR antagonist CH223191 (AHR; Sigma-Aldrich) were resuspended in dimethyl sulfoxide (DMSO; Sigma-Aldrich) and administered intraperitoneally. Ficz was injected 1 day after DSS administration (1 μg/mouse). For the AHR treatment, WT→GF and Card9−/−→GF mice (4- to 5-week-old females) were treated (100 μg/mouse) three times per week until euthanization. Controls consisted of mice injected with DMSO vehicle alone for the Ficz and AHR treatment groups. […] The resulting sequences were aligned, inspected by eye, and compared with the online tool BLAST. Strains were identified based on the highest hit scores. These strains were deposited in the Collection Nationale de Cultures de Microorganismes (CNCM) of the Institut Pasteur and named L. murinus CNCM I-5020, L. reuteri CNCM I-5022, and L. taiwanensis CNCM I-5019. […] In all treatments, body weight, blood in stool, and stool consistency were analyzed daily. The severity of colitis was assessed using the disease activity index (DAI) as previously described (6).
# [6] = tested on: AhR; assay: AhR activation luciferase reporter assay in H1L1.1c2 cells; assay type: cell-based, mouse; conditions: bacterial culture supernatant, relative to culture media (FIG. 13a)
# Procedure: The H1L1.1c2 cell line containing a stably integrated DRE-driven firefly luciferase reporter plasmid pGudLuc1.1 was provided by Michael S. Denison (University of California, Davis, Calif., USA) and has been described previously (47, 48). The cells were seeded in 96-well plates at 7.5×10^4 cells/well in 100 μl of complete DMEM medium (10% heat-inactivated fetal calf serum, 50 IU/ml penicillin, and 50 μg/ml streptomycin; Sigma-Aldrich) and cultured (37° C., 10% CO2) for 24 h prior to treatment. Fresh stools from healthy and IBD patients in remission and from WT, Card9^−/−, MWT, MCard9^−/−, Ido1^−/− and germ-free mice were collected, weighed and stored at −80° C. until processing. The stools were suspended, diluted to 100 mg/ml in PBS, centrifuged (5000 g, 15 min, 4° C.) and filtered (0.2 μm; VWR, Fontenay-sous-Bois, France). Lactobacillus and Bifidobacterium spp. were grown in MRS medium (BD Difco, Le Pont De Claix, France) supplemented with 10% cysteine (Sigma-Aldrich) at 37° C. under respectively aerobic and anaerobic conditions. Allobaculum stercoricanis (DSMZ 13633) was cultivated under the recommended culture condition listed in the DSMZ. Cultured supernatants of these bacteria were stored at −80° C. until processing. […] After adding 100 μl of Promega-stabilized luciferase reagent, the luciferase activity was measured using a luminometer. […]
# [7] = defect in MCard9−/− mice, Ficz 1 μg/mouse i.p.
# [8] = Ficz-treated vs non-treated MCard9−/− mice
compound,measurement,setting,value
"O=Cc1c2c(cc3c1=Nc1ccccc1-3)=Nc1ccccc1-2 [Ficz, 6-formylindolo[3,2-b]carbazole]","colitis severity (body weight loss, histology score, colon shortening)",[1],weaker colitis severity
same,Il17 expression,"[2]; colon, Ficz treatment",not altered
same,Il22 colonic expression,[2]; [7],rescued
same,RegIIIβ colonic expression,[2]; [7],rescued
same,RegIIIγ colonic expression,[2]; [7],rescued
same,IFNgamma in the colon,[3]; [8],No significant differences
same,IL6 in the colon,[3]; [8],No significant differences
same,IL10 in the colon,[3]; [8],No significant differences
same,Il17 production,"[3]; colon explants cultured 24 h, Ficz treatment",not altered
"OC(Cn1cncn1)(Cn1cncn1)c1ccc(F)cc1F [antifungal, fluconazole]",colitis phenotype (weight loss and DAI) of MCard9−/− vs MWT mice,[4],did not modify the phenotype
"Cc1ccccc1N=Nc1ccc(NC(=O)c2ccnn2C)c(C)c1 [AHR antagonist, CH223191]",effects of the three Lactobacillus strains in the presence of an AHR antagonist,[5],abrogated
Lactobacillus reuteri,AhR activation by cultured supernatants,[6],strongly activate AhR
